Laboratory results as given in patent US20200345746A1, “Oxazine Derivative for Use in the Prevention of Alzheimer's Disease in at Risk Patents” (Novartis AG, priority 2016, published 2020).
Marks after values point to notes of the source that are not given here.

Columns and labels:
[1] = Compound levels in blood, brain and skin of C57BL/6 mice (HPLC/MS/MS); settings: for AUCbrain (AUC0-24 h) / AUCventral skin (AUC0-24 h) / AUCdorsal skin (AUC0-24 h) / AUC(0-t): day 56; for AUCbrain (AUC0-24 h) / AUCventral skin (AUC0-24 h) / AUCdorsal skin (AUC0-24 h): from 4 and 24 h; for AUC(0-t): whole blood, po, AUCblood (AUC0-24 h)
[2] = Body weight, chronic 8-week dosing in wild-type mice; assay type: in vivo, mouse; settings: C57BL/6 mice, 8 weeks chronic treatment
Description: (§1) Compound 1 and NB-360 were formulated as a suspension. […] Vehicle: […] in 0.5% methylcellulose in water.
(§2) Body weight was taken 3 times per week (Monday, Wednesday, Friday). Subjective scoring of any hair colour changes was performed once weekly (Wednesday). Scores (% of body with grey fur): 0: No change; 1: Spots; 2: >30%; 3: >50%; 4: >75%; 5: 100%. Animals were photo-documented when fur color change was observed. Final fur color scoring was performed blinded and by a person not involved in the study.

C57BL/6 mice = assay: Fur colour scoring, chronic 8-week dosing in wild-type mice; assay type: in vivo, mouse
Description: as §1, §2

AUCbrain (AUC0-24 h) ([1]; C57BL/6, 20 μmol/kg q.d.): 16.39 µmol·h/kg
AUCventral skin (AUC0-24 h) ([1]; C57BL/6, 20 μmol/kg q.d.): 104.81 µmol·h/kg
AUCdorsal skin (AUC0-24 h) ([1]; C57BL/6, 20 μmol/kg q.d., n = 2 for 24 h): 46.9^c μmol/kg · h
AUCbrain (AUC0-24 h) ([1]; C57BL/6, 100 μmol/kg q.d.): 114.45 µmol·h/kg
AUCdorsal skin (AUC0-24 h) ([1]; C57BL/6, 100 μmol/kg q.d.): 294 µmol·h/kg
AUCventral skin (AUC0-24 h) ([1]; C57BL/6, 100 μmol/kg q.d.): 712.16 µmol·h/kg
Kp ([1]; C57BL/6, mouse, brain / whole blood, oral): 2.8
AUC(0-t) ([1]; C57BL/6, mouse, 20 umol/kg, C57BL/6, 20 μmol/kg q.d., from 1, 4, 7, 24 h time points): 6.93 µM·h
AUC(0-t) ([1]; C57BL/6, mouse, 20 umol/kg, C57BL/6, 20 μmol/kg q.d., from 4 and 24 h time points): 5.6 µM·h
AUC(0-t) ([1]; C57BL/6, mouse, 100 umol/kg, C57BL/6, 100 μmol/kg q.d., from 1, 4, 7, 24 h time points): 35.9 µM·h
AUC(0-t) ([1]; C57BL/6, mouse, 100 umol/kg, C57BL/6, 100 μmol/kg q.d., from 4 and 24 h time points): 25.3 µM·h
fur discoloration reached a plateau after (C57BL/6 mice): 5 weeks
fur colour change (C57BL/6 mice; 20 μmol/kg p.o. once daily, 8 weeks): slight but significant fur score change
appearance of grey patches apparent after (C57BL/6 mice; high and low dose group): 3 weeks
SMILES: Cc1cc(C#N)cnc1C(=O)Nc1ccc(F)c([C@]2(C)CO[C@@](C)(C(F)(F)F)C(N)=N2)c1 [NB-360, N-(3-((3R,6R)-5-amino-3,6-dimethyl-6-(trifluoromethyl)-3,6-dihydro-2H-1,4-oxazin-3-yl)-4-fluorophenyl)-5-cyano-3-methylpicolinamide]
body weight difference compared to vehicle [2]: No overall significant body weight difference
fur colour change (C57BL/6 mice; 100 μmol/kg p.o. once daily, 8 weeks): more severe and profound fur color change
fur discoloration (C57BL/6 mice; 20 and 100 μmol/kg groups, 8 weeks): All animals in the NB-360 group showed fur discoloration
